Laboratory results taken from patent publication US7371742B2, “Porphyrin derivatives for photodynamic therapy” (Institut Curie, priority 2001, dated 2008).
Read-outs that look alike come from different tables or passages of the source.

Assays:
A549 = A549 photocytotoxicity (entries inside Table B cells); assay type: cell-based; settings: A549 named inside the cell; concentration not given
FT-1 cells = test: FT-1 cell photocytotoxicity; assay type: cell-based, human; settings: for Photocytotoxicity FT-1, Red: Red light, concentration not given
[1] = tested on: human colic adenocarcinoma cell line HT29; test: HT29 cell survival (MTT assay) after 24 h incubation, with or without light irradiation; settings: for Photocytotoxicity HT 29, concentration giving 50%: 50% effect; for cytotoxic for HT29 (in words): remark of the inventors
Protocol: (§1) HT29 cells were cultivated in Dulbecco's MEM supplemented with 10% fetal calf serum (FCS). Cells from log-phase culture were seeded in 24-microwell plates (1 mL-5×10^4 cells/well) and kept at 37° C. in a water-jacketed incubator for 2 days under an air/CO2 atmosphere (5% CO2). Tested compounds, in DMSO solution, were added under the minimum volume (5 μL) to reach a concentration ranging from 0.1 to 10 μg/mL. Controls cells received 5 μL of DMSO free of dye. Plates were incubated 24 h, then medium was removed and the cells were washed twice with phosphate buffered saline (PBS) before addition of fresh medium free of drug and irradiation with visible light using a home made “light box” giving a fluence of 3.8 mW/cm^2 on the whole visible spectrum. Irradiation with red light was carried out using the same device fitted with an orange filter (0% T at 520 nm and 80% T at 590 nm) leading to a fluence of 2 mW/cm^2.
(§2) Plates were reincubated for 3 days before evaluation of the cell survival using the MTT assay (T. Mosmann, “Rapid calorimetric assay for cellular growth and survival. Application to proliferation assays”. J. Immunol. Methods 65,55-63,1983) using 30 min incubation with 100 μg well of 3-[4,5-dimethylthiazol-2-yl]-2,5-diphenyl tetrazolium bromide (MTT, Sigma). After removal of the medium, formazan crystals were taken up with 100 μL of DMSO and absorbance at 540 ni was measured with a Bio-Rad microplate reader (model 450); survival was expressed as % of untreated controls.

[2] = tested on: RBY-79 (indifferently named Y-79) cells; test: RBY-79 (Y79) cell cytotoxicity / photocytotoxicity
From the text: (§3) Columns HT29 and Y79 (═RBY79), without light, correspond to the cytotoxic activity.

tumoral cells = test: Antitumoral photodynamic activity in general (remarks on Tables B and C); assay type: cell-based, human; settings: for active when activated by light towards tumoral cells (in words): under appropriate irradiation
From the text: The main results for antitumoral effects are reported in Table B, showing the rate of photocytotoxicity. The higher the percentage, the higher the antitumnoral or antiviral effect.
Concerning the antitumoral activity, the compounds obtained by the inventors are active, under appropriate irradiation indicated towards tumoral cells in which these derivatives are able to accumulate.

[3] = tested on: human colic adenocarcinoma cell line HT29
Protocol: as §1, §2

[4] = tested on: RBY-79 (indifferently named Y-79) cells
From the text: as §3

L-1210 cells = test: Cytotoxicity L-1210 (no light), cytostatic activity; assay type: cell-based, human; settings: for Cytotoxicity L-1210 (no light), cell marked Red: cell prints 'Red', concentration not given
From the text: Column L1210 corresponds to the cytostatic activity.

[5] = patient, cited from earlier work; for period of photosensitivity: after treatment
[6] = read-out: HT 29 IC50 (μM) with 2J/cm^2, irradiation with filter (0% T at 520 nm, 80% T at 590 nm), 3.5 mW/cm^2, 10 min
[7] = read-out: HT 29 IC50 (μM) without light, without light (cytotoxic activity)
[8] = read-out: Y79 IC50 (μM) With 2J/cm^2, irradiation with filter (0% T at 520 nm, 80% T at 590 nm), 3.5 mW/cm^2, 10 min
[9] = read-out: Y79 IC50 (μM) without light, without light (cytotoxic activity)
[10] = without light, remark of the inventors
[11] = with light, compared with its cytotoxicity

5,10,15-Tri(3-O-β-D-glucosylphenyl)-2,3-chlorin and 5,10,15-tri(3-O-β-D-glucosylphenyl)-7,8-chlorin [Compound 55]
Photocytotoxicity A549 (A549): A549, 10% | Photocytotoxicity FT-1, Red (FT-1 cells): 25% | Photocytotoxicity HT 29, Red ([1]; Red light, concentration not given): Red, 0% | IC50 [1, 6]: 5.7 ± 3 µM | IC50 [1, 7]: > 15 µM | IC50 [2, 8]: 3.7 ± 1.8 µM | IC50 [2, 9]: 8 ± 7 µM | cytotoxic for Y79 (in words) [2, 10]: cytotoxic

5,10,15-tri(para-O-diethyleneglycoloxyphenyl)-20-phenylporphyrin [Compound 75]
IC50 [1, 6]: 4.3 µM | IC50 [1, 7]: 6.5 µM | biological activities (in words) (tumoral cells; non glycosylated analogue compared with compound 67): totally inactive | IC50 [2, 8]: 1.2 µM | IC50 [2, 9]: 4.5 µM

5, 10, 15-tri(meta-hydroxyphenyl)-20-phenyl)-2,3-chlorin and 5,10,15-tri(3-hydroxyphenyl)-7,8-chlorin [Compound 77-78]
IC50 [1, 6]: 1.5 ± 0.07 µM | IC50 [1, 7]: 6.6 ± 0.9 µM | IC50 [2, 8]: 0.6 ± 0.1 µM | IC50 [2, 9]: > 10 µM | cytotoxic for HT29 (in words) [3]: cytotoxic

OC[C@H]1O[C@H](Sc2c(F)c(F)c(-c3c4nc(c(-c5c(F)c(F)c(F)c(F)c5F)c5ccc([nH]5)c(-c5c(F)c(F)c(F)c(F)c5F)c5nc(c(-c6c(F)c(F)c(F)c(F)c6F)c6ccc3[nH]6)C=C5)C=C4)c(F)c2F)[C@@H](O)[C@@H](O)[C@@H]1O [Compound 30]
Photocytotoxicity RBY-79, % at 2 μg/ml [4]: 90% 2 μg/ml

OC[C@H]1O[C@@H](OCCOc2cccc(-c3c4nc(c(-c5cccc(OCCO[C@@H]6O[C@H](CO)[C@@H](O)[C@H](O)[C@H]6O)c5)c5ccc([nH]5)c(-c5cccc(OCCO[C@@H]6O[C@H](CO)[C@@H](O)[C@H](O)[C@H]6O)c5)c5nc(c(-c6cccc(OCCO[C@@H]7O[C@H](CO)[C@@H](O)[C@H](O)[C@H]7O)c6)c6ccc3[nH]6)CC5)C=C4)c2)[C@H](O)[C@@H](O)[C@@H]1O [Compound 58]
Photocytotoxicity FT-1, Red (FT-1 cells): Red 0% | Cytotoxicity L-1210 (no light), cell marked Red (L-1210 cells): Red, 0, A549%

OC[C@H]1O[C@@H](Oc2cccc(-c3c4nc(c(-c5cccc(O[C@@H]6O[C@H](CO)[C@@H](O)[C@H](O)[C@H]6O)c5)c5ccc([nH]5)c(-c5cccc(O[C@@H]6O[C@H](CO)[C@@H](O)[C@H](O)[C@H]6O)c5)c5nc(c(-c6ccccc6)c6ccc3[nH]6)C=C5)C=C4)c2)[C@H](O)[C@@H](O)[C@@H]1O [Compound 60]
Photocytotoxicity A549 (A549): A549, 20% | Photocytotoxicity FT-1 (FT-1 cells; concentration and light not given): 0%

OC[C@H]1O[C@@H](OCCOc2cccc(-c3c4nc(c(-c5cccc(OCCO[C@@H]6O[C@H](CO)[C@@H](O)[C@H](O)[C@H]6O)c5)c5ccc([nH]5)c(-c5cccc(OCCO[C@@H]6O[C@H](CO)[C@@H](O)[C@H](O)[C@H]6O)c5)c5nc(c(-c6cccc(OCCO[C@@H]7O[C@H](CO)[C@@H](O)[C@H](O)[C@H]7O)c6)c6ccc3[nH]6)C=C5)C=C4)c2)[C@H](O)[C@@H](O)[C@@H]1O [Compound 61]
Photocytotoxicity A549 (A549): A549, 0% | Photocytotoxicity FT-1, Red (FT-1 cells): Red 0% | Cytotoxicity L-1210 (no light), cell marked Red (L-1210 cells): Red, 0%

OC[C@H]1O[C@@H](SCc2ccc(-c3c4nc(c(-c5ccc(CS[C@@H]6O[C@H](CO)[C@@H](O)[C@H](O)[C@H]6O)cc5)c5ccc([nH]5)c(-c5ccc(CS[C@@H]6O[C@H](CO)[C@@H](O)[C@H](O)[C@H]6O)cc5)c5nc(c(-c6ccc(CS[C@@H]7O[C@H](CO)[C@@H](O)[C@H](O)[C@H]7O)cc6)c6ccc3[nH]6)C=C5)C=C4)cc2)[C@H](O)[C@@H](O)[C@@H]1O [Compound 65, TPP(p-CH2-S-β-GluOH)4]
Cytotoxicity L-1210 (no light), % at 10 μg/ml (L-1210 cells): 16% | cytotoxic for Y79 (in words) [4]: cytotoxic | IC50 [1, 6]: 5.2 µM | IC50 [1, 7]: > 10 µM | RBY-79, concentration giving 50% with light or not ([2]; 50% effect, with light or not): 50% at 5 μg/ml | Y79 IC50 (μM) With 2J/cm^2 ([2]; irradiation with filter (0% T at 520 nm, 80% T at 590 nm), 3.5 mW/cm^2, 10 min): Inactive | IC50 [2, 9]: 4.7 µM

OC[C@H]1O[C@H](SCCOCCOc2ccc(-c3c4nc(c(-c5ccc(OCCOCCS[C@H]6O[C@H](CO)[C@@H](O)[C@H](O)[C@@H]6O)cc5)c5ccc([nH]5)c(-c5ccc(OCCOCCS[C@H]6O[C@H](CO)[C@@H](O)[C@H](O)[C@@H]6O)cc5)c5nc(c(-c6ccccc6)c6ccc3[nH]6)C=C5)C=C4)cc2)[C@@H](O)[C@@H](O)[C@@H]1O [Compound 68, TPP(p-O-DEG-S-α-Mann)3]
Cytotoxicity L-1210 (no light), % at 10 μg/ml (L-1210 cells; 10 μg/ml, no light): 0% 10 μg/ml | Photocytotoxicity HT 29, concentration giving 50% ([1]; with light): 50% 4 μg/ml | IC50 [1, 6]: 5.8 ± 3 µM | IC50 [1, 7]: > 10 µM | Photocytotoxicity RBY-79, concentration giving 50% ([2]; 50% effect, with light): 1 µg/mL | IC50 [2, 8]: 1 ± 0.5 µM | IC50 [2, 9]: 6 ± 2 µM

TPC(m-O-β-GluOH)4 [Compound 54]
Photocytotoxicity A549 (A549): 0, A549, 0% | Photocytotoxicity FT-1, Red (FT-1 cells): 20% | IC50 [1, 6]: 4.4 ± 0.1 µM | IC50 [1, 7]: > 15 µM | IC50 [2, 8]: 3 ± 1.4 µM | IC50 [2, 9]: 3.9 ± 0.1 µM | cytotoxic for Y79 (in words) [2, 10]: cytotoxic

TPP F4(p-S-β-GluOH)3 [Compound 26]
Cytotoxicity L-1210 (no light), % at 10 μg/ml (L-1210 cells; 10 μg/ml, no light): 20% 10 μg/ml | Photocytotoxicity HT 29, concentration giving 50% ([1]; with light): 50% 2 μg/ml | IC50 [1, 6]: 1.7 µM | IC50 [1, 7]: 6.5 µM | cytotoxic for HT29 (in words) ([1]; without light): cytotoxic | active when activated by light towards tumoral cells (in words) (tumoral cells): active | Photocytotoxicity RBY-79, concentration giving 50% ([2]; 50% effect, with light): 3.3 µg/mL | IC50 [2, 8]: 2.2 µM | IC50 [2, 9]: > 10 µM

TPP(p-OC3-S-α-MannOH)3 [Compound 24]
Cytotoxicity L-1210 (no light), concentration giving 50% (L-1210 cells; 50% effect, no light): 50% 14 μg/ml | Photocytotoxicity HT 29, concentration giving 50% ([1]; with light): 4.6 µg/mL | IC50 [1, 6]: 3.2 µM | IC50 [1, 7]: 3.2 µM | phototoxic for HT29 (in words) [1, 11]: less phototoxic | cytotoxic for HT29 (in words) ([1]; without light): cytotoxic | active when activated by light towards tumoral cells (in words) (tumoral cells): active | Photocytotoxicity RBY-79, concentration giving 50% ([2]; 50% effect, with light): 6.5 µg/mL | IC50 [2, 8]: 4.7 µM | IC50 [2, 9]: 7.5 µM | phototoxic for Y79 (in words) [2, 11]: less phototoxic | cytotoxic for Y79 (in words) [2, 10]: cytotoxic

TPP(p-OC3-S-β-GluOH)3 [Compound 23]
Cytotoxicity L-1210 (no light), % at 10 μg/ml (L-1210 cells; 10 μg/ml, no light): 0% 10 μg/ml | Photocytotoxicity HT 29, concentration giving 50% ([1]; with light): 6 µg/mL | IC50 [1, 6]: 11 µM | IC50 [1, 7]: 13 µM | Photocytotoxicity RBY-79, concentration giving 50% ([2]; 50% effect, with light): 3 µg/mL | IC50 [2, 8]: 6.5 µM | IC50 [2, 9]: > 10 µM

benzoporphyrin derivative monoacid ring A [Verteporfin]
period of photosensitivity [5]: one day

porfimer sodium [Photofrin ®, reference compound]
time the drug stays in the skin after treatment ([5]; makes sensitive to strong light): approximately 30 days | period of photosensitivity [5]: several weeks | IC50 ([1]; read-out: HT 29 IC50 with 2J/cm^2, estimated concentration, with 2J/cm^2, estimated for mean molecular weight 1178.55 dimer form): 5.1 µM | HT 29 IC50 with 2J/cm^2, in μg/ml ([1]; with 2J/cm^2): 6 µg/mL | HT 29 IC50 without light, in μg/ml ([1]; without light): Inactive for 10 μg/ml | IC50 ([2]; read-out: Y79 IC50 With 2J/cm^2, estimated concentration, with 2J/cm^2, estimated for mean molecular weight 1178.55 dimer form): 2.6 µM | IC50 ([2]; read-out: Y79 IC50 without light, estimated concentration, without light, estimated for mean molecular weight 1178.55 dimer form): 3.9 µM | concentration at which cytotoxic for the Y79 cells ([2]; remark of the inventors): more than 3,9 μM | Y79 IC50 With 2J/cm^2, in μg/ml ([2]; with 2J/cm^2): 3 µg/mL | Y79 IC50 without light ([2]; without light): 4.6 µg/mL | cytotoxic for Y79 (in words) [2, 10]: cytotoxic
